Results on three compounds are retold here after US8871794B2, “Small-molecule agonists for type-2 orexin receptor” (Board of Regents, The University of Texas System, priority 2008, dated 2014).

Test [1] concerns orexin/ataxin-3 mice and wild-type controls. In words: EEG/EMG sleep/wake recording in orexin/ataxin-3 and wild-type mice. Format: in vivo, mouse. An excerpt: (§1) Aspects of this example, including more detailed descriptions of the production of the CAG/orexin-transgenic mice, the cataplexy testing, cannulation (i.c.v.) and orexin administration and EEG/EMG recordings were published in Mieda et al., PNAS USA Mar. 30, 2004; 101(13):4649-54.
(§2) We administered orexin-A, a nonselective agonist for orexin receptor type 1 (OX1R) and OX2R.
To quantify the effects of orexin-A administration on sleep/wake status, we recorded EEG/EMG in orexin/ataxin-3 mice, as well as wild-type controls. […] Nevertheless, some pharmacological effects of exogenous orexins have been reported to vary with time of day (Zeitgeber-dependent effects). We therefore examined the effects of orexin-A administrations in mice both at the onset of the dark (active) phase as well as during the light (resting) phase, again by using a randomized crossover design.

Test [2] relates to orexin/ataxin-3-transgenic mice. In words: Cataplexy testing in orexin/ataxin-3-transgenic mice. Format: in vivo. To be noted: 3 nmol per mouse i.c.v., first 3 h after injection, vs vehicle.
Excerpt: as §1, §2
We examined whether i.c.v. orexin-A administration suppresses cataplectic arrests in orexin/ataxin-3-transgenic mice. By using a randomized crossover design, we administered vehicle and orexin-A to all mice during separate experimental sessions. […] Thus, i.c.v. administration of orexin-A is sufficient to acutely suppress behavioral arrests in this model of narcolepsy.

Another test relates to wild type C57BL/6J mice. In words: Emergence from isoflurane anesthesia (return of righting reflex). In kind it is in vivo, mouse. The procedure: Loss and Return of Righting Reflex. Induction and emergence from isoflurane or sevoflurane were defined behaviorally as the respective loss and return of the righting reflex and were evaluated as follows. Wild-type C57BL/6J male mice aged 8-14 weeks (Jackson Laboratories). were placed in cylindrical gas-tight, controlled-environment chambers arrayed in parallel (35). After 90 min of habituation with 100% oxygen each day on two successive days, anesthesia was induced with a Drager model 19.1 isoflurane or sevoflurane vaporizer by using 8-12 stepwise incremental increases in the concentration of anesthetic gas dissolved in 100% oxygen. Anesthetic gas concentrations were determined in triplicate during the last 2 min at each step (35). Initial volatile anesthetic concentrations were 0.44% isoflurane or 0.96% sevoflurane. After 15 min at each concentration to allow for equilibration of the mouse with the anesthetic vapors, the concentration of volatile anesthetic was increased by 6±3% of the preceding value. […]
Pharmacologic Inhibition of Orexin Signaling and Righting Reflex Studies. To determine the effect of the orexin-1R antagonist, SB-334867-A (Tocris Bioscience), on induction of anesthesia, 24 C57BL/6J mice were evaluated for both the concentration at which the righting reflex was lost as well as a separate experiment to measure the latency to loss of righting. […]

A further test deals with wild-type mice. In words: Diet-induced obesity in mice. In kind it is in vivo, mouse. An excerpt: To examine whether enhanced OX2R signaling causes resistance to diet-induced obesity, an OX2R selective agonist, [Ala11, D-Leu15] Orexin-B (Akanmu and Honma, 2005 Brain. Res. 1048. 138-145.; Asahi et al., 2003 Bioorg. Med. Chem. Lett. 13.
111-113) was continuously infused in the lateral ventricles of wild-type mice for 14 days. […] There was no effect of the OX2R selective agonist for OX2R-deficient mice on a high fat diet (n=4, weight gain 3.33±0.61 g), verifying the selectivity of the agonist in vivo.

The mark [3] stands for this setting: 3 nmol i.c.v., regardless of genotype and time of administration.
The mark [4] stands for this setting: 0.5 nmol/d infused in lateral ventricles, 14 days, wild-type mice.

Where no end group is shown, it is not given here.

On to “orexin-A: a nonselective agonist for orexin receptor type 1 (OX1R) and OX2R (QPLPDCCRQKTCSCRLYELLHGAGNHAAGILTL; ends and bridges not checked; cysteine pairing not given here; UniProt O43612 34-66, looked up)”, for which, in test [1] (3 nmol i.c.v., 3-h period), the “non-REM sleep in narcoleptic animals compared with wild-type” value is on record as “significantly greater suppressions of non-REM sleep” and the “wakefulness in orexin/ataxin-3-transgenic mice compared with wild-type mice” value is listed as “significantly greater amounts of wakefulness”. Also, the “elevation of REM sleep in narcoleptic mice” value in test [1] (3 nmol i.c.v., dark phase) was “effectively suppressed this elevation of REM sleep”. Moreover, in test [1] (setting [3]), the “non-REM and REM sleep” value is “suppressed both non-REM and REM sleep”; the wakefulness result is recorded as “strikingly increased wakefulness”. Moreover, the “REM sleep suppression, narcoleptic mice vs wild-type controls” value in test [1] (3 nmol i.c.v., regardless of the time of administration) is listed as “more effective at suppressing REM sleep in narcoleptic mice than in wild-type controls”. Besides, in test [1] (3 nmol per mouse i.c.v.), the “effects in knockout mice lacking both OX1R and OX2R genes” value is listed as “no detectable effects”. The “cumulative wakefulness and cumulative sleep in narcoleptic animals” value in test [1] (24 h after a nocturnal administration) was “statistically significant increase of cumulative wakefulness and a decrease of cumulative sleep”. In test [1] (after dark-phase or light-phase administration), the “immediate rebounds of sleep” value was “no immediate rebounds of sleep were observed”. In addition, in test [2], the “frequency of cataplectic arrests” value is “significantly reduced” and the “overall time spent in cataplexy” value is “significantly reduced”.
For the compound `Cc1nc2ccc(NC(=O)Nc3ccnc4cccnc34)cc2o1.Cl` [SB-334867-A], the “emergence from isoflurane anesthesia, dose dependence” value with wild type C57BL/6J mice (5 mg/kg or 20 mg/kg i.p., 1.25% isoflurane) is “dose-dependent delay in emergence”. Moreover, the “emergence from isoflurane anesthesia” value in the test on wild type C57BL/6J mice (20 mg/kg i.p. (F2,45=8.80, P<0.001)) is on record as “significantly delayed emergence”.
Consider [Ala11, D-Leu15] Orexin-B, for which, in the test with wild-type mice (setting [4]), the “weight gain on a high fat diet” value is reported as “suppressed weight gain” and the “weight homeostasis on a low fat diet” value was “without altering weight homeostasis”. In addition, in the test with wild-type mice (14 days, wild-type mice, high fat diet), the “fat mass gain vs vehicle on a high fat diet” value is recorded as “gained significantly less fat mass”. Also, the “fat mass gain on a low fat diet” value in the test on wild-type mice (14 days, wild-type mice, low fat diet) is recorded as “no effect was observed”. In the test with wild-type mice (OX2R-deficient mice, high fat diet), the “effect for OX2R-deficient mice on a high fat diet” value is recorded as “no effect”. The compound also came in with a weight gain with wild-type mice (OX2R-deficient mice, high fat diet, n=4) of 3.33 ± 0.61 g. In addition, the “change in LEPR, POMC, SOCS3, STAT3 transcripts” value in the test with wild-type mice (after 14 days) is on record as “no significant change”. In the test on wild-type mice (after 14 days, high fat diet compared to low fat diet), the “hypothalamic mRNA expression of orexigenic factors NPY and AGRP” value is given as “reduced hypothalamic mRNA expression”. The food intake entry with wild-type mice (high fat vs low fat diet) is recorded as “reduced food intake only on a high fat but not on low fat diet”.
